Our source for the IC50 values is patent US11180474B2 (BRISTOL-MYERS SQUIBB COMPANY, priority 2016, dated 2021).

As usually defined, the IC50 is the concentration at which inhibition is half-maximal.

A value given as a limit tells only on which side of the number the result lay.

For experiment [1], the target named is T1, human TLR8 (Homo sapiens, UniProt Q9NR97).
T1 construct: host or cells: HEK-Blue cells
T1 sequence (Q9NR97 27-1041): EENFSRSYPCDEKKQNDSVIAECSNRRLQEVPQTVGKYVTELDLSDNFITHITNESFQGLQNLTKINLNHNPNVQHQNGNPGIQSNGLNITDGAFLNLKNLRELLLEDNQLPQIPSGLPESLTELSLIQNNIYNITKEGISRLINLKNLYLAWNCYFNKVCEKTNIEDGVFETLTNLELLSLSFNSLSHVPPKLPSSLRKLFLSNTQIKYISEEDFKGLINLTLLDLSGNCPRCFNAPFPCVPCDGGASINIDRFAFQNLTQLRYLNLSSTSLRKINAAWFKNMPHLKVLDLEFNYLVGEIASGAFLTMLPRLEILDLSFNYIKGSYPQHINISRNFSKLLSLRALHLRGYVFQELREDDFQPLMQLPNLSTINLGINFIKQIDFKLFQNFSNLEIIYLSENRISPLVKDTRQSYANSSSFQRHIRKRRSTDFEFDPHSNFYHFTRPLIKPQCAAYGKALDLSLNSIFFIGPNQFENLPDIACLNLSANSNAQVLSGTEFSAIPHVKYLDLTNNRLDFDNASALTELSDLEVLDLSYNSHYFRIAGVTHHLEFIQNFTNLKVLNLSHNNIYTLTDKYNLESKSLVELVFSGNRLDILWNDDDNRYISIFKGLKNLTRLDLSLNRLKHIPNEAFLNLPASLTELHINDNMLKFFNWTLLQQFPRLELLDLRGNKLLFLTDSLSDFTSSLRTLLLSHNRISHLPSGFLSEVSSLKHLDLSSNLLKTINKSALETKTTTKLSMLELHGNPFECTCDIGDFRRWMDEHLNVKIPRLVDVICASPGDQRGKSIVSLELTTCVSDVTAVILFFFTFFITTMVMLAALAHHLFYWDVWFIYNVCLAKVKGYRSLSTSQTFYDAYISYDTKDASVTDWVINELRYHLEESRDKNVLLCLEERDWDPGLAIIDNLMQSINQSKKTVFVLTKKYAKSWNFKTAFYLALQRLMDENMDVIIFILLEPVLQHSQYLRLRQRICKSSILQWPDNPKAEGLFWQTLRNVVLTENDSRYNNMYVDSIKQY
Kind of experiment: TLR8 inhibition reporter assay (HEK-Blue cells, SEAP reporter, R848 stimulation). The format is cell-based. The settings on record: HEK-Blue cells overexpressing human TLR8, R848 15.9 μM. The protocol: TLR7/8/9 Inhibition Reporter Assays
Briefly, cells are seeded into Greiner 384 well plates (15000 cells per well for TLR7, 20,000 for TLR8 and 25,000 for TLR9) and then treated with test compounds in DMSO to yield a final dose response concentration range of 0.05 nM-50 μM. […] After a 22 hour incubation at 37° C., 5% CO2, SEAP levels are determined with the addition of HEK-Blue™ Detection reagent (Invivogen), a cell culture medium that allows for detection of SEAP, according to manufacturer's specifications. The percent inhibition is determined as the % reduction in the HEK-Blue signal present in wells treated with agonist plus DMSO alone compared to wells treated with a known inhibitor.
On the technique in general: In a reporter assay the amount or activity of a reporter protein is the signal.

Experiment [2] concerns the target T2, human TLR9 (Homo sapiens, UniProt Q9NR96).
T2 construct: host or cells: HEK-Blue cells
T2 sequence (Q9NR96 26-1032): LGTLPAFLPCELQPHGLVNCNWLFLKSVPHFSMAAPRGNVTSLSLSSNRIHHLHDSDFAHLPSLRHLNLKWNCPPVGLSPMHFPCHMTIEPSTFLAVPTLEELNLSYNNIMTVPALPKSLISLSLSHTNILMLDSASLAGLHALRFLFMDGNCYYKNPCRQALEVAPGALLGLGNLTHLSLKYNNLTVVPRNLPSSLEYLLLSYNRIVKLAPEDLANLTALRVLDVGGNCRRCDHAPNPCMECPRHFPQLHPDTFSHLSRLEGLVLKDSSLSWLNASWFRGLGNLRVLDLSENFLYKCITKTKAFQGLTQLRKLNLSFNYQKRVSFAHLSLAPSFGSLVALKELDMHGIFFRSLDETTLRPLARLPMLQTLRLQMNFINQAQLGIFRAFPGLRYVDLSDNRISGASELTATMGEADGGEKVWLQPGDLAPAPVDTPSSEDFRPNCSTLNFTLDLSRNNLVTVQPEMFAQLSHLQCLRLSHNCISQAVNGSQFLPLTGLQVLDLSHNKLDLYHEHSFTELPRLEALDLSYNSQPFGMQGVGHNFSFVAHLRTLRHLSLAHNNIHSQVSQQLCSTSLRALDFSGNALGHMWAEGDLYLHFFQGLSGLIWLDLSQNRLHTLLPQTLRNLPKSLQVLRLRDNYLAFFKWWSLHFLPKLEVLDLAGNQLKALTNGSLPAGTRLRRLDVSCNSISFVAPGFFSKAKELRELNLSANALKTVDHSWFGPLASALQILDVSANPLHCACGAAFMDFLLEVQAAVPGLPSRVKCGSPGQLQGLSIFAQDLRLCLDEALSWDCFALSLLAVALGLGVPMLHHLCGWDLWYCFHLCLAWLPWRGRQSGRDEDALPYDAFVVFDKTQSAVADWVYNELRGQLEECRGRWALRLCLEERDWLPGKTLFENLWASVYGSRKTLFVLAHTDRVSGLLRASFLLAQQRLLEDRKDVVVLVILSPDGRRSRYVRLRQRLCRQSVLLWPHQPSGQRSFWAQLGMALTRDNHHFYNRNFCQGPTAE
Kind of experiment: TLR9 inhibition reporter assay (HEK-Blue cells, SEAP reporter, ODN2006 stimulation). The format is cell-based. The settings on record: HEK-Blue cells overexpressing human TLR9, ODN2006 5 nM. Put shortly: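 Dose–response from 0.05 nM to 50 μM was run in HEK-Blue human TLR7, TLR8 and TLR9 reporter cells. After 30 min at room temperature with compound, ligand was added (TLR7 gardiquimod 7.5 μM; TLR8 R848 15.9 μM; TLR9 ODN2006 5 nM) and SEAP measured next day, at 22 h.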

In the case of `CCc1c(-c2ccc(OC)c(OC)c2)[nH]c2ccc(C3CCN(C4CCN(Cc5csnn5)CC4)CC3)cc12` [Example 130, 4-((4-(2-(3,4-dimethoxyphenyl)-3-ethyl-1H-indol-5-yl)-[1,4′-bipiperidin]-1′-yl)methyl)-1,2,3-thiadiazole], the IC50 in experiment [1] was 792 nM; in experiment [2], 6230 nM.
`CCc1c(-c2ccc(OC)c(OC)c2)[nH]c2ccc(C3CCN(C4CCN(Cc5cc(C)n[nH]5)CC4)CC3)cc12` [Example 131, 2-(3,4-dimethoxyphenyl)-3-ethyl-5-(1′-((3-methyl-1H-pyrazol-5-yl)methyl)-[1,4′-bipiperidin]-4-yl)-1H-indole]: the IC50 amounted to 56 nM in experiment [1] and 447 nM in experiment [2].
Taken in the same sequence, the figures for `CCc1c(-c2ccc(OC)c(OC)c2)[nH]c2ccc(C3CCN(C4CCN(Cc5cc(C)nn5C)CC4)CC3)cc12` [Example 132, 2-(3,4-dimethoxyphenyl)-5-(1′-((1,3-dimethyl-1H-pyrazol-5-yl)methyl)-[1,4′-bipiperidin]-4-yl)-3-ethyl-1H-indole] were at least 50000 nM and 695 nM.
Taken in the same sequence, the figures for `CCc1c(-c2ccc(OC)c(OC)c2)[nH]c2ccc(C3CCN(C4CCN(Cc5ccn(C)n5)CC4)CC3)cc12` [Example 133, 2-(3,4-dimethoxyphenyl)-3-ethyl-5-(1′-((1-methyl-1H-pyrazol-3-yl)methyl)-[1,4′-bipiperidin]-4-yl)-1H-indole] were 160 nM and 657 nM.
The like results for `CCc1c(-c2ccc(OC)c(OC)c2)[nH]c2ccc(C3CCN(C4CCN(Cc5cc6ccccc6n5C)CC4)CC3)cc12` [Example 137, 2-(3,4-dimethoxyphenyl)-3-ethyl-5-(1′-((1-methyl-1H-indol-2-yl)methyl)-[1,4′-bipiperidin]-4-yl)-1H-indole] were, in that order, 1290 nM and 2600 nM.
In the case of `CCc1c(-c2ccc(OC)c(OC)c2)[nH]c2ccc(C3CCN(C4CCN(Cc5c(C)noc5C)CC4)CC3)cc12` [Example 138, 4-((4-(2-(3,4-dimethoxyphenyl)-3-ethyl-1H-indol-5-yl)-[1,4′-bipiperidin]-1′-yl)methyl)-3,5-dimethylisoxazole], the results for the IC50 in experiment [1] and in experiment [2] were 268 nM and 1400 nM, respectively.
Taken in the same sequence, the figures for `CCc1c(-c2ccc(OC)c(OC)c2)[nH]c2ccc(C3CCN(C4CCN(Cc5sccc5C)CC4)CC3)cc12` [Example 139, 2-(3,4-dimethoxyphenyl)-3-ethyl-5-(1′-((3-methylthiophen-2-yl)methyl)-[1,4′-bipiperidin]-4-yl)-1H-indole] were 206 nM and 444 nM.
Taken in the same sequence, the figures for `CCc1c(-c2ccc(OC)c(OC)c2)[nH]c2ccc(C3CCN(C4CCN(Cc5ccc(C)s5)CC4)CC3)cc12` [Example 140, 2-(3,4-dimethoxyphenyl)-3-ethyl-5-(1′-((5-methylthiophen-2-yl)methyl)-[1,4′-bipiperidin]-4-yl)-1H-indole] were 240 nM and 479 nM.
In the case of `CCc1c(-c2ccc(OC)c(OC)c2)[nH]c2ccc(C3CCN(C4CCN(Cc5ccc(-c6ccccc6)s5)CC4)CC3)cc12` [Example 141, 2-(3,4-dimethoxyphenyl)-3-ethyl-5-(1′-((5-phenylthiophen-2-yl)methyl)-[1,4′-bipiperidin]-4-yl)-1H-indole], the IC50 in experiment [1] was 9780 nM; in experiment [2], at least 50000 nM.
The like results for `CCc1c(-c2ccc(OC)c(OC)c2)[nH]c2ccc(C3CCN(C4CCN(Cc5ccsc5)CC4)CC3)cc12` [Example 142, 2-(3,4-dimethoxyphenyl)-3-ethyl-5-(1′-(thiophen-3-ylmethyl)-[1,4′-bipiperidin]-4-yl)-1H-indole] were, in that order, 101 nM and 133 nM.
Regarding `CCc1c(-c2ccc(OC)c(OC)c2)[nH]c2ccc(C3CCN(C4CCN(Cc5ccc(-c6ccccc6)o5)CC4)CC3)cc12` [Example 143, 2-(3,4-dimethoxyphenyl)-3-ethyl-5-(1′-((5-phenylfuran-2-yl)methyl)-[1,4′-bipiperidin]-4-yl)-1H-indole], the IC50 is 706 nM in experiment [1] and 730 nM in experiment [2].
